# Test results as given in patent US11633379B2, “Methods of inhibiting PCSK9” (TRUSTEES OF DARTMOUTH COLLEGE, priority 2017, dated 2023).
# pIC50: −log10 of the molar value. Several values for one entry are separate records, joined by “and”; a condition that tells them apart may be missing. Equal entries are not always repeated.
# Test system: PCSK9
# Test: PCSK9 AlphaLisa Huh7 SP and CRC
# Format: cell-based
# Settings: 10 μM, Huh7
row,Structure (SMILES),Primary SP PCSK9 AlphaLisa Huh7 SP % Inhib @ 10 μM
1,Cn1c2c(c3ccccc31)C1(CCCC1)C1C=CC2C1 (centres unmarked) [Compound 7],−34.71%
2,Cn1c2c(c3ccccc31)C1(CCCCC1)C1C=CC2C1 (centres unmarked) [Compound 8],−44.02%
3,CC1C=CC(C)C(c2ccccc2)c2c1n(C)c1ccccc21 (centres unmarked) [Compound 12],−261.1%
4,COC(=O)c1ccc2[nH]c3c(c2c1)C(C)(C)C1C=CC3C1 (centres unmarked) [Compound 15],−117.8%
5,CC1(C)c2c([nH]c3ccc(F)cc23)C2C=CC1C2 (centres unmarked) [Compound 23],−35.06%
6,CC1(C)c2c([nH]c3ccc(C(F)(F)F)cc23)C2C=CC1C2 (centres unmarked) [Compound 25],−334%
7,CN1c2ccccc2[C@]2(C)Cc3ccccc3N[C@H]12 [Compound 54],−11.97%
8,C[C@@]12Cc3ccccc3N[C@@H]1N(Cc1ccccc1)c1ccccc12 [Compound 55],−22.6%
9,CCC[C@@]12Cc3ccccc3N[C@@H]1N(C)c1ccccc12 [Compound 56],32.56% and 23.45%
10,CN1c2ccccc2[C@]2(Cc3ccccc3)Cc3ccccc3N[C@H]12 [Compound 57],17.71%
11,Cc1cccc2c1N[C@@H]1N(C)c3ccccc3[C@]1(C)C2 [Compound 58],−2.718%
12,CN1c2ccccc2[C@]2(C)Cc3cc(Cl)ccc3N[C@H]12 [Compound 60],9.09%
13,C=CCc1ccc2c(c1)C[C@@]1(C)c3ccccc3N(C)[C@H]1N2 [Compound 61],−16.91%
14,CN1c2ccc(Br)cc2[C@]2(C)Cc3ccccc3N[C@H]12 [Compound 62],10.55% and 20.08%

# Same assay, conditions: 10.1 μM, Huh7
row,Structure (SMILES),Primary SP PCSK9 AlphaLisa Huh7 SP % Inhib @ 10.1 μM
1,Cc1ccc2c(c1)C[C@@]1(C)c3ccccc3N(C)[C@H]1N2 [Compound 59],−5.307%

# Same assay, conditions: Huh7, concentration response curve; read-out: Primary CRC PCSK9 AlphaLisa Huh7 CRC Rel IC50
row,Structure (SMILES),pIC50
1,Cn1c2c(c3ccccc31)C1(CCCCC1)CC2c1ccc2ccccc2c1 (centres unmarked) [Compound 22],< 4.40

# Test system: PCSK9
# Test: Secondary Basal_PCSK9 ELISA RPH
# Format: cell-based
# Settings: 20 μM
# Protocol: (§1) The below data (Table 2) was generated using the assays as discussed in Examples 1-2. Blanks mean no testing was performed. […] For the SP assays, the higher the number, the higher the inhibition, e.g., the better the activity of the compound. Compounds with a determined IC50 are particularly active, the IC50 values were determined via dose response curve (under the heading CRC which stands for concentration response curve aka dose response curve).
row,Structure (SMILES),Secondary Basal_PCSK9 ELISA RPH % Inhib @ 20 μM
1,Cc1ccc(C2CC3(CCCCC3)c3c2[nH]c2ccccc32)cc1 (centres unmarked) [Compound 33],−4.143% and 2.541% and 3.284% and −5.595%

# Same assay, conditions: 100 μM
row,Structure (SMILES),Secondary Basal_PCSK9 ELISA RPH % Inhib @ 100 μM
1,Cc1ccc(C2CC(C)(C)c3c2[nH]c2ccccc32)cc1 (centres unmarked) [Compound 31],19.03% and 22.14%
2,Cc1ccc(C2CC3(CCCCC3)c3c2[nH]c2ccccc32)cc1 (centres unmarked) [Compound 33],25.95% and 29.77%

# Test system: PCSK9
# Test: Basal_PCSK9 HepG2, primary SP and CRC (secreted PCSK9, ELISA)
# Format: cell-based, human
# Settings: 2 μM, HepG2, single point
# Protocol: To study the effect of the compounds on PCSK9 secretion we used 1×10^6 HepG2 cells in 6-well culture plates, followed by incubation with media only, media+0.1% DMSO or Media+5 uM of 31/33/34/35 in 0.1% DMSO and collection of 50 ul of media at 8, 16, 24 and 40 hours or incubation with increasing concentration (0.2-50 μM) of 34 in 0.1% DMSO for 24 hours and collection of 50 ul of media. The collected media was analyzed for PCSK9 levels using commercially available ELISA kit (MBL-international, catalog # CY-8079) following the manufacturer instruction.
# as §1
row,Structure (SMILES),Primary SP Basal_PCSK9 HepG2 SP % Inhib @ 2 μM
1,Cn1c2c(c3ccccc31)C(c1ccccc1)C1C=CC2C1 (centres unmarked) [Compound 1],0%
2,CC1(C)c2c([nH]c3ccccc23)C2C=CC1C2 (centres unmarked) [Compound 14],47.9%

# Same assay, conditions: 5 μM, HepG2, single point
row,Structure (SMILES),Primary SP Basal_PCSK9 HepG2 SP % Inhib @ 5 μM
1,COc1ccc(C2c3c(n(C)c4ccccc34)C3C=CC2C3)cc1 (centres unmarked) [Compound 2],39.51%
2,Cn1c2c(c3ccccc31)C(c1ccc(C(F)(F)F)cc1)C1C=CC2C1 (centres unmarked) [Compound 3],−0.4577%
3,Cn1c2c(c3ccccc31)C(c1ccco1)C1C=CC2C1 (centres unmarked) [Compound 4],11.69%
4,Cn1c2c(c3ccccc31)C(c1cccs1)C1C=CC2C1 (centres unmarked) [Compound 5],30.55%
5,CCC1c2c(n(C)c3ccccc23)C2C=CC1C2 (centres unmarked) [Compound 6],−5.193%
6,Cn1c2c(c3ccccc31)C1(CCCCC1)C1C=CC2C1 (centres unmarked) [Compound 9],21.92%
7,CC1=C(C)CC2(CCCCC2)c2c(n(C)c3ccccc23)C1 [Compound 10],11.61%
8,CC1=CCc2c(c3ccccc3n2C)C(c2ccccc2)C1 (centres unmarked) [Compound 11],38.95%
9,CC1(C)c2c(n(Cc3ccccc3)c3ccccc23)C2C=CC1C2 (centres unmarked) [Compound 13],18.09%
10,CC1(C)c2c([nH]c3ccc(I)cc23)C2C=CC1C2 (centres unmarked) [Compound 16],9.989%
11,CC1(C)c2c([nH]c3ccc(Br)cc23)C2C=CC1C2 (centres unmarked) [Compound 17],37.33%
12,CC1(C)c2c([nH]c3ccc(Cl)cc23)C2C=CC1C2 (centres unmarked) [Compound 18],21.64%
13,Cn1c2c(c3ccccc31)C1(CCCCC1)CC2c1ccccc1 (centres unmarked) [Compound 19],7.268%
14,COc1ccc(C2CC3(CCCCC3)c3c2n(C)c2ccccc32)cc1 (centres unmarked) [Compound 20],15.69%
15,Cc1ccc(C2CC3(CCCCC3)c3c2n(C)c2ccccc32)cc1 (centres unmarked) [Compound 21],12.18%
16,Cn1c2c(c3ccccc31)C1(CCCCC1)CC2c1ccc2ccccc2c1 (centres unmarked) [Compound 22],77.2%
17,CC1(C)c2c([nH]c3ccc(O)cc23)C2C=CC1C2 (centres unmarked) [Compound 24],4.997%
18,Cc1ccc(C2CC(C)(C)c3c2[nH]c2ccccc32)cc1 (centres unmarked) [Compound 31],26.2%
19,c1ccc(C2CC3(CCCCC3)c3c2[nH]c2ccccc32)cc1 (centres unmarked) [Compound 32],8.8%
20,Cc1ccc(C2CC3(CCCCC3)c3c2[nH]c2ccccc32)cc1 (centres unmarked) [Compound 33],18.9%
21,Cc1ccc(C2CC3(CCCCC3)c3c2[nH]c2ccc(C)cc32)cc1 (centres unmarked) [Compound 35],26.4%
22,Cc1ccc(C2CC(C)(C)c3c2[nH]c2ccc(C)cc32)cc1 (centres unmarked) [Compound 36],24.5%

# Same assay, conditions: 5 μM, HepG2 cells, FIGS. 2A-2B
row,Structure (SMILES),accumulation of PCSK9 in culture media
1,Cc1ccc(C2CC(C)(C)c3c2[nH]c2ccccc32)cc1 (centres unmarked) [Compound 31],significantly reduced accumulation of PCSK9 in culture media in a time-dependent and concentration-dependent manner
2,Cc1ccc(C2CC3(CCCCC3)c3c2[nH]c2ccccc32)cc1 (centres unmarked) [Compound 33],significantly reduced accumulation of PCSK9 in culture media in a time-dependent and concentration-dependent manner
3,Cc1ccc(C2CC3(CCCCC3)c3c2[nH]c2ccc(C)cc32)cc1 (centres unmarked) [Compound 35],significantly reduced accumulation of PCSK9 in culture media in a time-dependent and concentration-dependent manner

# Same assay, conditions: 50 μM, HepG2, single point
row,Structure (SMILES),Primary SP Basal_PCSK9 HepG2 SP % Inhib @ 50 μM
1,Cc1ccc(C2CC(C)(C)c3c2[nH]c2ccccc32)cc1 (centres unmarked) [Compound 31],87.5%
2,c1ccc(C2CC3(CCCCC3)c3c2[nH]c2ccccc32)cc1 (centres unmarked) [Compound 32],11.9%
3,Cc1ccc(C2CC3(CCCCC3)c3c2[nH]c2ccccc32)cc1 (centres unmarked) [Compound 33],53.4%
4,Cc1ccc(C2CC3(CCCCC3)c3c2[nH]c2ccc(C)cc32)cc1 (centres unmarked) [Compound 35],90%
5,Cc1ccc(C2CC(C)(C)c3c2[nH]c2ccc(C)cc32)cc1 (centres unmarked) [Compound 36],96.5%
6,COC(=O)[C@@H]1CC[C@H](O)[C@@]2(C)c3ccccc3N(C)[C@@H]12 [Compound 49],−13.7% and −22.9%
7,CC1(C)C(=O)C[C@@]2(C)c3ccccc3N(Cc3ccccc3)[C@@]12C [Compound 53],−20.1% and −22.3%

# Same assay, conditions: HepG2, concentration response curve
row,Structure (SMILES),pIC50
1,CC1(C)c2c([nH]c3ccccc23)C2C=CC1C2 (centres unmarked) [Compound 14],< 4.30
2,Cc1ccc(C2CC(C)(C)c3c2[nH]c2ccccc32)cc1 (centres unmarked) [Compound 31],5.39
3,Cc1ccc(C2CC3(CCCCC3)c3c2[nH]c2ccccc32)cc1 (centres unmarked) [Compound 33],5.67
4,Cc1ccc(C2CC3(CCCCC3)c3c2[nH]c2ccc(C)cc32)cc1 (centres unmarked) [Compound 35],5.50
5,Cc1ccc(C2CC(C)(C)c3c2[nH]c2ccc(C)cc32)cc1 (centres unmarked) [Compound 36],4.73

# Same assay, conditions: summary of Table 2 data
row,Structure (SMILES),"activity rating in words (PCSK9 inhibition, Table 2)"
1,Cc1ccc(C2CC(C)(C)c3c2[nH]c2ccccc32)cc1 (centres unmarked) [Compound 31],particularly strongly active
2,c1ccc(C2CC3(CCCCC3)c3c2[nH]c2ccccc32)cc1 (centres unmarked) [Compound 32],weakly active
3,Cc1ccc(C2CC3(CCCCC3)c3c2[nH]c2ccccc32)cc1 (centres unmarked) [Compound 33],particularly strongly active
4,Cc1ccc(C2CC3(CCCCC3)c3c2[nH]c2ccc(C)cc32)cc1 (centres unmarked) [Compound 35],particularly strongly active
